Test results: patent US4845194A, “Glycopeptide recovery process” (Eli Lilly and Company, priority 1987, dated 1989)

Tests used:
Experiment in all cases: In vivo antimicrobial activity in experimentally infected mice (ED50)
Streptococcus pneumoniae = details: for ED50 Value Streptococcus pneumoniae: mg/kg × 2, doses administered subcutaneously to mice 1 and 4 hours postinfection, dose protecting 50% of animals
Protocol: (§1) The A82846 antibiotics have shown in vivo antimicrobial activity against experimentally-induced infections in laboratory animals. When two doses of test compound were administered to mice experimentally infected with the test organism, the activity observed was measured as an ED50 value [effective dose in mg/kg to protect 50% of the test animals: see Warren Wick, et al., J. Bacteriol. 81, 233-235 (1961)].
(§2) ^a mg/kg × 2; doses administered subcutaneously to mice 1 and 4

Streptococcus pyogenes = details: for ED50 Value Streptococcus pyogenes: mg/kg × 2, doses administered subcutaneously to mice 1 and 4 hours postinfection, dose protecting 50% of animals
Protocol: as §1, §2

Staphylococcus aureus = details: for ED50 Value Staphylococcus aureus: mg/kg × 2, doses administered subcutaneously to mice 1 and 4 hours postinfection, dose protecting 50% of animals
Protocol: as §1, §2

Structure (SMILES)	ED50 Value Streptococcus pneumoniae (Streptococcus pneumoniae)	ED50 Value Streptococcus pyogenes (Streptococcus pyogenes)	ED50 Value Staphylococcus aureus (Staphylococcus aureus)	ED50 (Streptococcus pneumoniae; Streptococcus pneumoniae, sc, read-out: ED50 Value Streptococcus pneumoniae)	ED50 (Streptococcus pyogenes; Streptococcus pyogenes, sc, read-out: ED50 Value Streptococcus pyogenes)	ED50 (Staphylococcus aureus; Staphylococcus aureus, sc, read-out: ED50 Value Staphylococcus aureus)
CN[C@H](CC(C)C)C(=O)N[C@H]1C(=O)N[C@@H](CC(N)=O)C(=O)N[C@H]2C(=O)N[C@H]3C(=O)N[C@H](C(=O)N[C@@H](C(=O)O)c4cc(O)cc(O)c4-c4cc3ccc4O)[C@H](O[C@@H]3C[C@@](C)(N)[C@H](O)[C@@H](C)O3)c3ccc(cc3)Oc3cc2cc(c3O[C@H]2O[C@@H](CO)[C@H](O)[C@@H](O)[C@@H]2O[C@H]2C[C@](C)(N)[C@@H](O)[C@H](C)O2)Oc2ccc(cc2Cl)[C@H]1O [Compound A82846A]	0.17 mg/kg	0.19 mg/kg	0.19 mg/kg	–	–	–
CN[C@H](CC(C)C)C(=O)N[C@H]1C(=O)N[C@@H](CC(N)=O)C(=O)N[C@H]2C(=O)N[C@H]3C(=O)N[C@H](C(=O)N[C@H](C(=O)O)c4cc(O)cc(O)c4-c4cc3ccc4O)[C@H](O[C@H]3C[C@](C)(N)[C@@H](O)[C@H](C)O3)c3ccc(c(Cl)c3)Oc3cc2cc(c3O[C@@H]2O[C@H](CO)[C@@H](O)[C@H](O)[C@H]2O[C@H]2C[C@](C)(N)[C@@H](O)[C@H](C)O2)Oc2ccc(cc2Cl)[C@H]1O [Compound A82846B]	0.18 mg/kg	0.20 mg/kg	0.19 mg/kg	–	–	–
CN[C@@H](CC(C)C)C(=O)N[C@H]1C(=O)N[C@H](CC(N)=O)C(=O)N[C@H]2C(=O)N[C@H]3C(=O)N[C@@H](C(=O)NC(C(=O)O)c4cc(O)cc(O)c4-c4cc3ccc4O)[C@@H](O[C@H]3C[C@](C)(N)[C@H](O)[C@@H](C)O3)c3ccc(cc3)Oc3cc2cc(c3O[C@H]2O[C@@H](CO)[C@@H](O)[C@H](O)[C@@H]2O[C@H]2C[C@](C)(N)[C@H](O)[C@@H](C)O2)Oc2ccc(cc2)[C@@H]1O (stereo partly drawn) [Compound A82846C]	5.87 mg/kg	2.71 mg/kg	2.18 mg/kg	–	–	–
CN[C@H](CC(C)C)C(=O)N[C@H]1C(=O)N[C@@H](CC(N)=O)C(=O)N[C@H]2C(=O)N[C@H]3C(=O)N[C@H](C(=O)N[C@H](C(=O)O)c4cc(O)cc(O)c4-c4cc3ccc4O)[C@H](O)c3ccc(c(Cl)c3)Oc3cc2cc(c3O[C@@H]2O[C@H](CO)[C@@H](O)[C@H](O)[C@H]2O[C@H]2C[C@](C)(N)[C@H](O)[C@H](C)O2)Oc2ccc(cc2Cl)[C@H]1O [Vancomycin, vancomycin, reference compound]	–	–	–	1.52 mg/kg	0.72 mg/kg	1.3 mg/kg
